The source made the active and inactive calls.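 The calls were made as follows: active = signal falls with dose and the fitted half-maximal concentration is at or below twice the top valid tested dose; inconclusive = flat curve with 30 to 70% inhibition, or poor fit; inactive = wrong direction, flat within 30%, or potency beyond limit.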
What follows are molecules tested against Golgi-associated PDZ and coiled-coil motif-containing protein (Homo sapiens) (UniProt Q9HD26) (assay: blockers of CAL PDZ ligand groove binding – biochemical, fluorescence polarization, untagged CAL PDZ, cherry-pick, dose response (AID 602267)). Conditions: purified CAL PDZ, TMR-peptide fluorescence polarization, 1 h; at 16 µM (top of the series).

SMILES | activity change, negative = inhibition
O=C(c1ccccc1)C(c1ccccc1)c1ccccc1 | inactive
C=CCOc1c(Cl)cc(CNn2cn[nH]c2=S)cc1OC | inactive
c1ccc(C2Nc3ccccc3Oc3ccccc32)cc1 (configuration not stated) | inactive
CC1CCN(c2nc3c(c(=O)n(C)c(=O)n3C)n2CCSc2nc3ccccc3s2)CC1 | inactive
COc1ccc(N2CCN(C(=O)c3cccc4nc(C)oc34)CC2)cc1 | inactive

Same assay, conditions: purified CAL PDZ, TMR-peptide fluorescence polarization, 1 h; at 50 µM (top of the series)

SMILES | activity change, negative = inhibition
O=C(c1cccc(Oc2c(Cl)cccc2[N+](=O)[O-])c1)N1CCOCC1 | inactive
CCC(C)(C)NC(=O)CSc1nc(Cc2ccccc2)nc2ccccc12 | inactive
OC(c1ccccc1)(c1ccccc1)c1nccc2ccccc12 | inactive
Cc1ccc(NC(=O)CN(C)C(=S)NC2CC2)cc1 | inactive
Fc1ccc(-n2c(-c3ccc4ccccc4n3)n[nH]c2=S)cc1Cl | inactive
COc1ccc(CC(=O)N2CCC(CCC(=O)Nc3ccccc3)CC2)cc1 | inactive
COc1ccc2ccn(S(=O)(=O)c3ccccc3)c2c1 | inactive
CCn1ncc(Br)c1C(=O)Nc1cccc(F)c1 | inactive
CS(=O)(=O)N1CCN(C(=O)c2ccc3c(c2)OCCO3)CC1 | inactive
CCOC(=O)Cn1ncn(-c2ccc(OC(F)(F)F)cc2)c1=O | inactive
CC(C)Oc1ccc(C(=O)Nc2ccc(S(=O)(=O)N3CCN(C)CC3)cc2)cc1 | inactive
C/C(=C/c1ccccc1)C(=O)N1CCN(c2ccccc2)CC1 | inactive
COc1ccccc1NC(=O)N(c1c(N)n(Cc2ccccc2)c(=O)[nH]c1=O)C1CCCC1 | inactive
O=C(NC12CC3CC(CC(C3)C1)C2)c1ccco1 | inactive
CC(C)OC(=O)C1CC(C)(O)C(=O)C(C(=O)OC(C)C)C1c1ccc([N+](=O)[O-])cc1 (configuration not stated) | inactive
CCN(CC(=O)Nc1cc(Cl)cc(Cl)c1)CC(=O)NC1CCS(=O)(=O)C1 (configuration not stated) | inactive
Cn1c(=O)c2c(ncn2CC(=O)Nc2nc(-c3ccccc3Cl)cs2)n(C)c1=O | inactive
FC(F)(F)c1cc(-c2cccs2)nc2ncnn12 | inactive
O=C(Nc1cccc(F)c1)c1ccco1 | inactive
O=C1OC2(CCCCC2)OC(=O)C1=CNc1nc2ccccc2s1 | inactive
CN(C)c1ccc(C(=O)OCC(=O)NC2CCCCCC2)cc1 | inactive
O=C1CSC(=Nc2ccccc2Cl)N1 | inactive
COc1cc(Br)c(C(=O)c2nccc3cc(OC)c(OC)cc23)cc1OC | inactive

SMILES | activity change, negative = inhibition
Cc1ccnc2nc(C(=O)OCCOc3ccc(F)cc3)nn12 | inactive
CCOc1ccccc1N(CC(=O)Nc1cccc2ccccc12)S(C)(=O)=O | inactive
Cc1cc(C(=O)CN2CCCC2)c(C)n1-c1ccc(Cl)cc1 | inactive
O=C(NC1(C(F)(F)F)NC(=O)N(C2CCCCC2)C1=O)C1CC1 (configuration not stated) | inactive
O=C1C=C(c2ccccc2)C(c2ccccc2)C1 (configuration not stated) | inactive
Cc1ccc(SCC(=O)NCc2ccc(F)cc2)cc1 | inactive
FC(F)(F)Oc1ccc(NC(=S)NCCCN2CCOCC2)cc1 | inactive
COc1ccc(C(=O)N2CCCc3ccccc32)cc1Br | inactive
COc1ccc(/C=C2\N=C(c3ccc(C)cc3)OC2=O)cc1 | inactive
COc1cc(C)cc(CN2CC=C(c3ccccc3)CC2)c1O | inactive
COc1ccc(CC(=O)NCC2CCCN(Cc3cccc(SC)c3)C2)cc1 (configuration not stated) | inactive
CC1=C(C#N)C(Nc2ccc(Cl)cn2)(C(F)(F)F)C(=O)N1 (configuration not stated) | inactive
COC(=O)CN1C(=O)N/C(=C/c2cc(Cl)c(OC)c(OC)c2)C1=O | inactive
O=C(COC(=O)c1cccc(O)c1)NC(=O)Cc1ccccc1 | inactive
COCCN(Cc1nc(C(c2ccccc2)c2ccccc2)no1)C(C)C | inactive
O=C(COC(=O)c1ccc(Cl)nc1)Nc1ccc(N2CCCCC2)cc1 | inactive
CCCCC(CCC(=O)Nc1nccs1)C(=O)O (configuration not stated) | inactive
Cc1c(NC(=O)CN2CCC(C(N)=O)CC2)cccc1[N+](=O)[O-] | inactive
NC(=O)C1CCN(c2ncccc2[N+](=O)[O-])CC1 | inactive
CCOC(=O)C1=C(C)OC(N)=C(C#N)C1c1cccc(C)c1 (configuration not stated) | inactive
COc1ccc(OC)c(NC(=O)c2ccc(OC3CSC3)cc2)c1 | inactive
COc1ccc(N2CCN(C3CCCN(Cc4ccc(F)cc4)C3)CC2)cc1 (configuration not stated) | inactive
O=C(N/N=C/c1ccc(OCc2ccccc2)cc1)c1ccc(O)cc1 | inactive

SMILES | activity change, negative = inhibition
CCCNC(=O)C(=O)NCC1CCCN1CC (configuration not stated) | inactive
O=C(NCc1cccnc1)c1ccc(Cn2c(=S)[nH]c3ccc(Br)cc3c2=O)cc1 | inactive
Cc1cccc(C)c1NC(=S)NC(=O)c1ccc(Br)o1 | inactive
CCOC(=O)CCC(=O)Nc1ccc(S(=O)(=O)N2CCC(C)CC2)cc1 | inactive
CC(C)(C)c1nn(-c2ccccc2)c2[nH]c(=O)c(C=O)cc12 | inactive
COc1ccc(Oc2nc3c(c(=O)n(C)c(=O)n3C)n2C)cc1 | inactive
O=C(Nc1ccccc1Cl)Nc1cccnc1Cl | inactive
CC1CCCN(C(=O)Cc2cccc3ccccc23)C1 (configuration not stated) | inactive
C/C(=N\NC(=O)C(O)c1ccccc1)c1ccc(Cl)s1 (configuration not stated) | inactive
O=C(Nc1nccs1)c1ccc(F)c(S(=O)(=O)N2CCOCC2)c1 | inactive
Cc1sc(NC(=O)c2ccco2)c(C(Nc2ccccn2)c2ccccc2)c1C (configuration not stated) | inactive
CCOC(=O)/C(N=Nc1ccc2c(c1)OCO2)=C(\C)O | inactive
S=C(NCCc1ccccc1)N1CCn2cccc2C1c1cccnc1 (configuration not stated) | inactive
O=C(NC1CCCN(Cc2ccc(Cl)cc2)C1)c1cccc(N2CCCC2=O)c1 (configuration not stated) | inactive
Cc1ccc(C(C)NC(=O)Cc2cccs2)c(C)c1 (configuration not stated) | inactive
CSc1cccc(NC(=O)N2CCCC(CNS(=O)(=O)Cc3ccccc3)C2)c1 (configuration not stated) | inactive
Cc1cc(C)c(OCC(=O)OC(C)C(=O)NC2CC2)c(C)c1 (configuration not stated) | inactive
C[n+]1ccc(C(=O)Nc2ccccc2Cl)cc1 | inactive
CCOC(=O)c1ccc(N=C2SC(C(=O)NC)CC(=O)N2Cc2ccc(F)cc2)cc1 (configuration not stated) | inactive
Cc1ccc(CNC2CCCCC2)s1 | inactive
COCCN(C(=S)Nc1ccccc1OC)C1CCN(C(C)C)CC1 | inactive
Cc1[nH]c2ccccc2c1C(=O)CSc1nc2ncc(Cl)cc2[nH]1 | inactive
CC1CCCC(C)N1/N=C/c1ccc(N(C)C)cc1 (configuration not stated) | inactive

SMILES | activity change, negative = inhibition
O=C1CC(c2ccccc2)=C(c2ccccc2)C1 | inactive
O=C(Cc1ccccc1)NN=C1CCCC1 | inactive
COc1ccc(CN(C)C(C)C(=O)NC2CCCc3ccccc32)cc1 (configuration not stated) | inactive
O=P(O)(COc1ccccc1)COc1ccccc1 | inactive
CC(C)n1cc(C(=O)N2CCCC(N3CCN(c4ccc(F)cc4)CC3)C2)cn1 (configuration not stated) | inactive
Cc1nc(Cl)sc1C(=O)Nc1cc(F)cc(F)c1 | inactive
c1ccc(CNc2nc(NCc3ccccc3)c3ccccc3n2)cc1 | inactive
CS(=O)(=O)N(CC(=O)N1CCOCC1)c1cccc(F)c1 | inactive
Cc1ccccc1S(=O)(=O)NC(=NCc1ccc(F)cc1)c1ccccc1 | inactive
O=C(Nc1ccc(Cl)cc1)c1ccc(CN2CCc3ccccc3C2)cc1 | inactive
CCOCCCNC(=S)N1CCN(c2nc(-c3ccccc3)cs2)CC1 | inactive
O=C(NCc1cccs1)c1cccn2c(=O)c3sccc3nc12 | inactive
COc1ccc(C2/C(=C(/O)c3ccc(C)cc3)C(=O)C(=O)N2C)c(OC)c1 (configuration not stated) | inactive
O=C(c1c(Cl)cccc1Cl)N1CCCCCC1 | inactive
Cc1cccc(N(Cc2cc(=O)[nH]c3ccccc23)C(=O)C(C)C)c1 | inactive
C=CCNC(=O)CC1Nc2c3ccccc3nc(=S)n2C1=O (configuration not stated) | inactive
Nc1ccc(N(CCO)CCO)cc1 | inactive
Cc1ccc(C(=O)Nc2ccccc2)cc1S(=O)(=O)N1CCN(C)CC1 | inactive
O=C(C=Cc1ccccc1)c1cc(Br)ccc1O | inactive
C[C@H](NC(=O)c1ccccc1Cl)C(=O)NCc1cccs1 | inactive
Cc1ccnc(SCC(=O)N2CCC(C(N)=O)CC2)n1 | inactive
COc1ccc(/C=C/C(=O)Nc2ccc3nc4n(c(=O)c3c2)CCCC4)cc1OC | inactive
CC1CCC(NC(=O)c2ccc3c(c2)S(=O)(=O)c2ccccc2C3=O)CC1 (configuration not stated) | inactive
